From patent US20180168208A1 (priority 2014, published 2018)
Where two headings read alike, the source gives them in different places.

Target: T1, cat T1R1/T1R3 receptor (Felis catus, UniProt A0ABI7Z2I4)
T1 sequence (A0ABI7Z2I4 171-420): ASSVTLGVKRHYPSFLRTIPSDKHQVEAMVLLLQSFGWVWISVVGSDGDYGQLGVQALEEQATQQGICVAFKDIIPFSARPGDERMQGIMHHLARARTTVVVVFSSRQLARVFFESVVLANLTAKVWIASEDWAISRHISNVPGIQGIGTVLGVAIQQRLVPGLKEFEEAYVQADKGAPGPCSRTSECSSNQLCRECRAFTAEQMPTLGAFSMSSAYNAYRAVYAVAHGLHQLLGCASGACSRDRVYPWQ
T1 sequence (Q49KI5 25-865 E206Q/N523D/F654L partner): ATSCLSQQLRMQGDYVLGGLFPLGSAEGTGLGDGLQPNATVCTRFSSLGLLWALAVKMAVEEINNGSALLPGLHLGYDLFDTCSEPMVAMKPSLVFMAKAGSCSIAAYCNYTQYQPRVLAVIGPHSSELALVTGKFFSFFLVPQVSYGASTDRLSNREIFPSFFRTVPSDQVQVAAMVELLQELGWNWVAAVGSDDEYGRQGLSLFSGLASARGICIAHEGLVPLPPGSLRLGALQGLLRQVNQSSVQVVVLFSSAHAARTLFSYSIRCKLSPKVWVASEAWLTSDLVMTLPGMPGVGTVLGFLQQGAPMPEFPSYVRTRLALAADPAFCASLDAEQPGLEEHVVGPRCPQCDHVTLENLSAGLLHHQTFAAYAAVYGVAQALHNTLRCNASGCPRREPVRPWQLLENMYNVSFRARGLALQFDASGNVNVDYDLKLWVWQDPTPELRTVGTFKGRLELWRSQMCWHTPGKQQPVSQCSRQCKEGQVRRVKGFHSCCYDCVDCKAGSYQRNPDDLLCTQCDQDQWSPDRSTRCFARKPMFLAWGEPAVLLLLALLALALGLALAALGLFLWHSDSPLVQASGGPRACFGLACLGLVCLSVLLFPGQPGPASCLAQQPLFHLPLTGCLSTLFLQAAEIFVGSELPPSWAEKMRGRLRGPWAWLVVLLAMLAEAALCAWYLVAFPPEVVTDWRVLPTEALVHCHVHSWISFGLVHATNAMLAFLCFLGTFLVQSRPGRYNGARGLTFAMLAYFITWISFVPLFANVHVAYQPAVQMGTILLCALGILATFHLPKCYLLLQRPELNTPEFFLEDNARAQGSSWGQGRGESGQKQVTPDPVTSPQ
Experiment: cell-based
Conditions: for function as activators of T1R1/T1R3 (in words): in the presence of alanine
Text: HEK293 cells that stably express T1R3 and inducibly express T1R1 were exposed to nucleotide derivatives alone or in combination with one or more amino acids and/or one or more nucleotides to activate the umami receptor. Activation of the T1R1/T1R3 receptor was detected by a change in intracellular calcium levels using a calcium sensitive fluorescent dye and/or a luminescent reporter system. Cells that express T1R3 but not T1R1 were used as a control. A FLIPR® Tetra or a FlexStation® 3 was used for data capture.

[1] = maximum response in relation to the response with IMP, 20 mM alanine
[2] = maximum response of the receptor, 20 mM alanine
[3] = threshold amount that results in activation of T1R1/T1R3, 20 mM alanine

CNc1ncnc2c1ncn2[C@H]1C[C@H](OP(=O)(O)O)[C@@H](COP(=O)(O)O)O1
Max resp. (ΔF/F): 1.8150 ΔF/F | Max. resp. % of IMP: 146.1 % of IMP | Threshold: 0.013 mM

O=C(Nc1ncnc2c1ncn2[C@@H]1O[C@H](COP(=O)(O)O)[C@@H](O)[C@H]1O)c1ccccc1
Activity: active | Max resp. (ΔF/F): 1.1 ΔF/F | Threshold: 0.3 mM | EC50 (read-out: EC50- with Ala): > 1000 µM

O=c1ccn(C2OC(COP(=O)(O)N3CCOCC3)C(O)C2O)c(=O)[nH]1 (stereo not shown)
Max. resp. % of IMP [1]: 104.8 % of IMP | Max resp. (ΔF/F) [2]: 1.0150 ΔF/F | Threshold [3]: 2.000 mM

2′-,3′-O-(N′-Methylanthraniloyl) guanosine-5′-O-monophosphate
Max. resp. % of IMP [1]: 74.3 % of IMP | Max resp. (ΔF/F) [2]: 0.7190 ΔF/F | Threshold [3]: 0.0014 mM

2′-,3′-O-(N′-Methylanthraniloyl)guanosine-5′-O-monophosphate
Activity (+Alanine (20 mM)): active | Max. resp. % of IMP [1]: 74.3 % of IMP | Max resp. (ΔF/F) [2]: 0.7190 ΔF/F | Threshold [3]: 0.0014 mM

2′-, 3′-O—(N′-methylanthraniloyl)guanosine-5′-O-monophosphate
function as activators of T1R1/T1R3 (in words): activators of T1R1/T1R3

Nc1ncnc2c1ccn2[C@H]1O[C@@H](COP(=O)(O)O)[C@H](O)[C@@H]1O (stereo in doubt) [7-Deazaadenosine-5′-O-monophosphate]
Activity: active | Threshold: 0.188 mM

Nc1nc2c(ncn2[C@H]2O[C@@H](COP(=O)(O)O)[C@H](O)[C@@H]2O)c(=O)[nH]1 (stereo in doubt) [guanosine monophosphate, reference compound]
Activity: active | EC50: 30 µM | Threshold: 0.008 mM

O=c1ccn([C@H]2O[C@@H](COP(=O)(O)O)[C@H](O)[C@@H]2O)c(=O)[nH]1 (stereo in doubt) [uridine monophosphate]
Activity: active | EC50: > 30000 µM | Threshold: 3.000 mM

O=P(O)(O)OC[C@H]1O[C@@H](n2cnc3c2ncn2ccnc32)[C@H](O)[C@@H]1O [1, N6-Ethenoadenosine-5′-O-monophosphate]
Threshold: 0.010 mM

O=P(O)(O)OC[C@H]1O[C@@H](n2cnc3c2ncn2ccnc32)[C@H](O)[C@@H]1O [1,N6-Ethenoadenosine-5′-O-monophosphate]
Activity (+Alanine (20 mM)): active

Nc1nc(Cl)c2ncn(C3OC(COP(=O)(O)O)C(O)C3O)c2n1 (stereo not shown) [2-amino-6-chloropurineriboside-5′-O-monophosphate]
Activity: active | EC50: 0.5 µM | Threshold: 0.00013 mM

CNc1ccccc1C(=O)OC1C[C@H](n2cnc3c(=O)[nH]c(N)nc32)O[C@@H]1COP(=O)(O)O (stereo partly shown) [2′-Deoxy-3′-O-(N′-methylanthraniloyl) guanosine-5′-O-monophosphate]
Activity: active | Max resp. (ΔF/F): 0.295 ΔF/F | Max. resp. % of IMP: 23.7 % of IMP | Threshold: 0.0025 mM | function as activators of T1R1/T1R3 (in words): activators of T1R1/T1R3

CNc1ccccc1C(=O)O[C@H]1C[C@H](n2cnc3c(N)ncnc32)O[C@@H]1COP(=O)(O)O [2′-Deoxy-3′-O-(N′-methylanthraniloyl)adenosine-5′-O-monophosphate]
Activity: active | Max resp. (ΔF/F): 0.3975 ΔF/F | Max. resp. % of IMP: 32.0 % of IMP | Threshold: 0.0025 mM
